This passage reports EC50, IC50 and outcome results from PubChem BioAssay AID179 (DTP/NCI, 2004).

This test relates to CEM cells HIV-1 protection, formazan growth assay. The test is described as follows: NCI AIDS Antiviral Assay. The following applies: for pIC50: measured here: growth of uninfected CEM cells. Summed up: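 Category rules: moderately active means at least 50% protection on retest, and confirmed active means 100% protection reproducibly. The underlying data came from a formazan growth assay in HIV-1-infected CEM cells.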

pEC50, pIC50: −log10 of the molar value. Calls of active or inactive are those of the source.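 The calls were made as follows: active = compounds giving half or more protection of infected cells from virus-caused growth loss, again on retest; inactive = the rest.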 Where a SMILES comes first, the peptide text is derived from it.

The pEC50 is the EC50 on a negative log10 scale, so that one unit is a factor of ten. The pIC50 is the IC50 on a negative log10 scale, so that one unit is a factor of ten.

In the case of `COc1ccc(NC2(Br)C(=O)NC(=O)NC2C(=O)O)cc1` (configuration not stated), the pEC50 was < 4.70 and the pIC50 is < 4.70.
With `Nc1nc2c(c(-c3ccc(F)cc3)n1)COC/C2=C\c1ccc(F)cc1`, the pEC50 is < 3.70 and the pIC50 was 3.80.
For `COC(=O)c1cc(C)ccc1/C=C1\Cc2cc(C)c(C)cc2C1=O`, in that order: < 4.00 and < 4.00.
For `NC(=O)CCC(CCC(N)=O)(CCC(N)=O)[N+](=O)[O-]`, in that order: < 3.70 and < 3.70.
For the compound `Cc1ccc(NC(=O)/C(C#N)=C/c2ccccc2)c(C)c1`, the pEC50 is < 4.61 and the pIC50 is < 4.61.
Turning to `O=C(O)c1[nH]c2c(=O)[nH]c(=O)[nH]c2c1Br`, the outcome was inactive.
With `CC(C)=CCOc1cc(NC(=S)c2ccoc2C)ccc1Cl`, the negative-log EC50 (pEC50) was 7.12 and the pIC50 is 4.52.
For `CC12Cc3ccccc3CC1OCN1CN2COC2Cc3ccccc3CC21C` (configuration not stated), in that order: < 4.88 and < 4.88.
For `O=C(/C=C\c1cccc2ccccc12)c1ccc(Br)cc1`, in that order: < 5.51 and < 5.51.
For `Cc1ccc(NC(=O)/C(Cl)=C(/Cl)C(=O)O)cc1`, the outcome was inactive.
`Cc1cc2nc3c(C(O)C(O)C(O)CO)nn(-c4ccc(F)cc4)c3nc2cc1C` (configuration not stated): the pEC50 was 4.05 and the pIC50 was < 3.70.
For `COc1ccc2c3ccc4c(c3n(C)c2c1)C(=O)C=CC4=O`, in that order: < 5.45 and < 5.45.
For `COc1ccc(/C=C/C(=O)c2nc3ccccc3[nH]2)cc1`, in that order: < 3.70 and 5.40.
For `COC(=O)/C=C(/Sc1nc(Cl)c(Cl)nc1N)C(=O)OC` (tested in a mixture with another compound), in that order: < 3.70 and 5.61.
Turning to `O=[N+]([O-])c1cccc(C2=NOC3C4CCC(C4)C23)c1` (configuration not stated), the pEC50 was 6.87 and the pIC50 is 4.18.
For `O=c1[nH]c2cccccc-2c1-c1nc2ccccc2[nH]1`, in that order: < 3.86 and < 3.86.
For `COC1/C=C\OC2(C)Oc3c(C)c(O)c4c(O)c(c(/C=N\OCCO)c(O)c4c3C2=O)NC(=O)/C(C)=C\C=C/C(C)C(O)C(C)C(O)C(C)C(OC(C)=O)C1C` (configuration not stated), in that order: 4.79 and 3.90.
For `CCc1nn(S(=O)(=O)c2ccc(C)cc2)c2c1CS(=O)(=O)CC2`, in that order: < 3.70 and < 3.70.
Take `CCSc1nnc(CSc2nc(-c3ccccc3)c(-c3ccccc3)[nH]2)n1-c1ccccc1`: the pEC50 is < 4.67 and the pIC50 was < 4.67.
`CNC(=O)NCCCCC(NC(C)=O)C(=O)NCc1ccccc1` (configuration not stated): the pEC50 is < 3.13 and the pIC50 was < 3.13.
Turning to `COc1ccc(N2C(=O)/C(=C/c3ccc(N(CCC#N)CCC#N)cc3)N=C2c2ccccc2)cc1`, the pEC50 is < 3.70 and the negative logarithm of the IC50 (pIC50) is < 3.70.
As for `COc1cc(CNc2nc3ccccc3nc2-c2cccs2)cc(OC)c1OC`, the pEC50 was < 3.70 and the pIC50 was 4.83.
`O=C1NC(Nc2ccccc2)=NC(C(F)(F)F)(C(F)(F)F)N1`: the pEC50 was < 3.70 and the pIC50 is 4.44.
For `CN(C)CCSC(=Nc1ccccc1)n1cccc1`, in that order: < 4.58 and < 4.58.
On to `COc1ccc(CN2COc3c(ccc4cccnc34)C2)cc1`, for which the pEC50 is < 3.70 and the pIC50 is 6.12.
As for `N#CN=C1C=CC(=C(C#N)C#N)C=C1`, the outcome was inactive.
Same read-out and setting: then `O=C1/C(=C/c2ccccc2)CN(C(=O)C(Cl)(Cl)Cl)C/C1=C\c1ccccc1`, with “inactive”.
For `CN(C(=O)C12C3C4C5C3C1(C(=O)O)C5C42)C(C)(C)C` (configuration not stated), the pEC50 is < 3.02 and the pIC50 was < 3.02.
Turning to `Cc1cccc(NC(=O)CC(=O)N2N=C(N(CCC#N)c3ccccc3Cl)CC2c2ccccc2)c1` (configuration not stated), the pEC50 is < 3.73 and the pIC50 was < 3.73.
On to `CCc1cccc(C(C)C)c1NC(=O)C(=O)C1C(=O)Nc2ccccc2S1=O` (configuration not stated), for which the pEC50 is < 4.04 and the pIC50 is < 4.04.
Consider `CC(=O)N1OC2(C)c3ccccc3C1(C)c1ccccc12`, for which the pEC50 was < 4.59 and the pIC50 was 4.63.
`Cc1cc(NC(=O)Nc2cc(F)ccc2F)no1`: the pEC50 was < 3.70 and the pIC50 is 3.91.
For `CC(C)(C)OC(=O)NC(CSCc1ccc(C(=O)c2ccccc2)cc1)C(=O)N1CCN(CCCCN2c3ccccc3Sc3cc(N=[N+]=[N-])ccc32)CC1` (configuration not stated), in that order: < 3.70 and < 3.70.
`CN(C)c1cccc2c1C(=O)C=CC21c2ccc(N(C)C)c3c(N(C)C)ccc(c23)C(c2ccccc2)C1c1ccccc1` (configuration not stated): the pEC50 is < 4.00 and the pIC50 was 5.15.
For `Cc1ccc(-c2c3nc(c(-c4ccc(C)cc4)c4ccc([nH]4)c(-c4ccc(C)cc4)c4nc(c(-c5ccncc5)c5ccc2[nH]5)C=C4)C=C3)cc1.Cc1ccc(-c2c3nc(c(-c4ccc(C)cc4)c4ccc([nH]4)c(-c4ccc(C)cc4)c4nc(c(-c5ccncc5)c5ccc2[nH]5)C=C4)C=C3)cc1.Cc1ccc(-c2c3nc(c(-c4ccc(C)cc4)c4ccc([nH]4)c(-c4ccc(C)cc4)c4nc(c(-c5ccncc5)c5ccc2[nH]5)C=C4)C=C3)cc1.Cc1ccc(-c2c3nc(c(-c4ccc(C)cc4)c4ccc([nH]4)c(-c4ccc(C)cc4)c4nc(c(-c5ccncc5)c5ccc2[nH]5)C=C4)C=C3)cc1.O=S(=O)([O-])C(F)(F)F.[Pd]`, in that order: < 4.60 and < 4.60.
For `NS(=O)(=O)c1nnc(NC(=O)CCC(=O)O)s1`, in that order: < 3.70 and < 3.70.
For `CNn1c(-c2ccccc2)n[nH]c1=O`, in that order: 3.96 and 3.82.
In the case of `C=C(CCCC(C)OC(C)OCC)[Si](C)(C)C` (configuration not stated), the pEC50 is < 4.41 and the pIC50 is < 4.41.
Take `Clc1ccc(C(Cc2ccccc2)c2c(Cl)nc(N3CCNCC3)nc2Cl)cc1` (configuration not stated): the pEC50 was < 3.70 and the pIC50 is 5.04.
For `Cc1ncc(COP(=O)(O)O)c(/C=C2\SC(=S)NC2=O)c1O`, in that order: < 3.70 and < 3.70.
As to `N#Cc1cc2c(cc1C#N)SCCSCCCSCCS2`, the result was inactive.
Turning to `CC(C)(NC(=O)OCc1ccccc1)C(=O)OC(=O)C(C)(C)NC(=O)OCc1ccccc1`, the pEC50 was < 3.70 and the pIC50 was < 3.70.
In the case of `Cc1cc2c3c(c1)S(=O)(=O)c1cc(Cl)ccc1N3CCC2`, the pEC50 is < 3.70 and the pIC50 was < 3.70.
With `O=C(Nc1ccc(C2=NCCN2)cc1)c1ccc(C(=O)Nc2ccc(C3=NCCN3)cc2)c(O)c1`, the pEC50 was 4.26 and the negative logarithm of the IC50 (pIC50) is 4.04.
As to `c1ccc(-c2cc(-c3cccs3)c(-c3cccs3)o2)cc1`, the pEC50 is < 3.70 and the pIC50 is 4.59.
Consider `CC1OC(OC2C(CO)OC(O[C@H]3CC[C@@]4(C)C(=CC[C@H]5[C@@H]6C[C@@H]7O[C@@]8(CC[C@H](C)CN8)[C@@H](C)[C@@H]7[C@@]6(C)CC[C@@H]54)C3)C(OC3OC(C)C(O)C(O)C3O)C2O)C(O)C(O)C1O` (some centres not stated), for which the outcome was inactive.
Regarding `CC12CCC[C@@](C)(C(=O)OC3OC(CO)C(O)C(O)C3O)[C@H]1CCC13CC4CC(OC4(CO)[C@H]1O)[C@@H]23` (some centres not stated), the result was inactive.
Take `N#CC(C(=O)CCCC(=O)Nc1ccccc1[N+](=O)[O-])c1c(Cl)cccc1Cl` (configuration not stated): the pEC50 is < 3.51 and the pIC50 is < 3.51.
`NC(=O)C(=O)C(c1ccccc1)S(=O)(=O)Cc1ccccc1` (configuration not stated): the pEC50 is < 3.70 and the pIC50 is < 3.70.
On to `O=C1CN(Cc2cccc(Cl)c2)CC(=O)N2Cc3ccccc3CN12`, for which the result was inactive.
Turning to `Clc1ccccc1CSc1cnnc2ccccc12`, the pEC50 was < 4.03 and the pIC50 is 4.17.
For `Cn1c(CCC2(C)Cc3ccccc3C(=O)O2)cc2ccccc2c1=O` (configuration not stated), in that order: < 3.70 and 4.44.
Regarding `O=C1Nc2ccc(Cl)cc2C(c2ccccc2Cl)=NC1O` (configuration not stated), the result was inactive.
In the case of `COc1ccc(N=Cc2ccc(N(CCC#N)S(=O)(=O)c3ccccc3)cc2C)cc1`, the pEC50 was < 3.66 and the pIC50 was 3.95.
For `CCCc1nc(N)nc(C(=O)Nc2cccc(C(F)(F)F)c2)c1CC`, in that order: < 3.15 and < 3.15.
On to `c1ccc([P+](CCCCCCCC[P+](c2ccccc2)(c2ccccc2)c2ccccc2)(c2ccccc2)c2ccccc2)cc1`, for which the pEC50 was < 4.00 and the negative logarithm of the IC50 (pIC50) was 5.91.
For `Cc1ccc(C)c(COCCOCn2c(=O)[nH]c(=O)c3cc(Br)ccc32)c1`, in that order: < 3.70 and < 3.70.
On to `CC(C)(C)c1cc(/C=C/C(=O)CC(=O)/C=C/c2cc(C(C)(C)C)c(O)c(C(C)(C)C)c2)cc(C(C)(C)C)c1O`, for which the pEC50 is < 3.70 and the pIC50 was < 3.70.
With `Cc1cn(COCCCO)c(=O)[nH]c1=O`, the pEC50 was < 3.70 and the pIC50 is < 3.70.
On to `Cc1nc(C(N)=O)c(N)n1CCN1CCN(C(=O)CCCCCCCCCCNC2N=CNc3nc[nH]c32)CC1` (configuration not stated), for which the result was inactive.
Consider `c1ccc2c(c1)CCc1c(-c3noc4c3CCc3ccccc3-4)noc1-2`, for which the pEC50 was < 3.83 and the pIC50 was < 3.83.
For the compound `CSC1=C(SC)SC(=C2SC3=C(SC(=C4SCCS4)S3)S2)S1`, the pEC50 was < 4.00 and the pIC50 was < 4.00.
With `COC(=O)C(C(=O)c1ccccc1)C(C(=O)C(=O)Nc1ccc(OC)cc1OC)C(=O)C(=O)c1ccc(C)cc1` (configuration not stated), the pEC50 was < 3.34 and the pIC50 is 3.39.
Turning to `COC1(C)CCC2(O)C(=O)OC3C(O)COC32O1` (configuration not stated), the pEC50 is < 3.70 and the pIC50 is < 3.70.
Consider `CN1CCN(CCSc2nccc(-c3cc4ccccc4s3)n2)CC1`, for which the pEC50 was < 3.90 and the pIC50 was 4.50.
For `NC(CO)C(=O)N1CCCC1C(=O)NC(Cc1ccc(O)cc1)C(=O)N1CCCC1C(=O)NC(CO)C(=O)O` (configuration not stated) (H-SPYPS-OH; configuration not given here), in that order: < 3.95 and < 3.95.
